{"source": "patent US20240122909A1", "about": "“TREATMENTS OF HEREDITARY ANGIOEDEMA” (KALVISTA PHARMACEUTICALS LIMITED, priority 2021, published 2024)", "key": {"[1]": {"target": "PKa (Homo sapiens, UniProt P03952)", "sequence (P03952 391-638 limits assumed)": "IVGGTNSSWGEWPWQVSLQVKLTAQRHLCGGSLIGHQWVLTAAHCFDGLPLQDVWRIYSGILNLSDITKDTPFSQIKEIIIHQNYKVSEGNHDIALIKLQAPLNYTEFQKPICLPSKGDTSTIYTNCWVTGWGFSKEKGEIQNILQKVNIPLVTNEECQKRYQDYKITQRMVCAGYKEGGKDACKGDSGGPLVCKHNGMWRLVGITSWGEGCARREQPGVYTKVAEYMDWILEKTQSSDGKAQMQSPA", "sequence (P03952 20-390 partner limits assumed)": "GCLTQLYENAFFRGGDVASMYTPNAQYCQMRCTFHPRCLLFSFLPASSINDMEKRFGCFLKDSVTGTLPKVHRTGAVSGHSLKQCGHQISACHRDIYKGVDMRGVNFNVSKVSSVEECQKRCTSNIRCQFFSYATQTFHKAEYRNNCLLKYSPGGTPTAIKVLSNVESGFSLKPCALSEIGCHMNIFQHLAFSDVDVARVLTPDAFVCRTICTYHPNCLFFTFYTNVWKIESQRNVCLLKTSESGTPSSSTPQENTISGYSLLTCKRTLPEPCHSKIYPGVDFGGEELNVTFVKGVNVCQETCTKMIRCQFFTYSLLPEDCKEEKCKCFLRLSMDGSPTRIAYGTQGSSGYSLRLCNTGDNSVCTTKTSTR", "test": "Protection of HK from PKa-mediated cleavage in DXS-stimulated HAE and control plasma", "type": "biochemical", "conditions": "HAE and healthy control plasma stimulated with dextran sulfate, WES", "experimental": "High molecular weight kininogen (HK) cleavage in undiluted citrated human plasma was induced by contact system activation with dextran sulfate (DXS, Sigma #31395-10G; 6.25 μg/ml) on wet ice. […] HAE plasma was obtained from HAE subjects (n=6) and C1-inhibitor deficiency was confirmed by western blotting. Protection of HK from PKa mediated cleavage in DXS-stimulated whole undiluted plasma was then determined by two methods; traditional western blotting and a semi-automated capillary-based immunoassay.\nWestern blotting: SDS-PAGE gel electrophoresis was done using 7.5% Criterion TGX Precast gels (Bio-rad). Transfer was made onto Immobilon-FL PVDF membrane. Image analysis was performed using the LICOR imaging system. Mouse monoclonal anti-human HK antibody (MAB15692, R&D systems) was used for traditional immunoblotting.\nCapillary-Based Immunoassay on the WES System (ProteinSimple):\nPreparation of samples: Combine one part 5× fluorescent master mix with four parts of the 1:200 plasma sample. Vortex to mix. Heat the samples+fluorescent master mix and the biotinylated ladder at 95° C. for 5 minutes, vortex, and load onto the WES plate. […] The peak area is defined as the area calculated for the spectral peak profile for HK. To measure the plasma kallikrein inhibition by the compound, the percent full-length HK detected was calculated."}, "[2]": {"target": "plasma kallikrein (Homo sapiens, UniProt P03952)", "sequence (P03952 391-638 limits assumed)": "as the sequence (P03952 391-638 limits assumed) above", "sequence (P03952 20-390 partner limits assumed)": "as the sequence (P03952 20-390 partner limits assumed) above", "test": "Phase 1 study, ex vivo PKa catalytic activity in DXS-stimulated undiluted plasma", "set-up": "samples from a Phase 1 Single Ascending Dose Study in healthy adult males; from tissue; host or cells: undiluted plasma of healthy adult male volunteers after oral dosing", "conditions": "600 mg tablet", "experimental": "PD measurements were determined in dextran sulfate (DXS) stimulated undiluted plasma using a fluorogenic enzyme assay and capillary based HK cleavage immunoassay.\nThe time until appearance of detectable amidolytic enzyme activity in DXS-stimulated plasma (lag time) was calculated from the catalytic activity assay. The detection sensitivity of the rate of catalytic activity in plasma based on using a Spark (Tecan) fluorimeter is a fluorescence increase to reach 1ΔF unit/sec."}, "[3]": {"test_system": "HK", "test": "Phase 1 study, ex vivo DXS-stimulated cleavage of HK (Wes capillary immunoassay)", "type": "in vivo, human", "conditions": "600 mg capsules, up to 12 hrs post-dose", "experimental": "DXS-stimulated cleavage of HK, in undiluted plasma was quantified by capillary-based immunoassay on the Wes System (ProteinSimple) using monoclonal anti-HK antibody and chemiluminescence-based detection. Plasma kallikrein mediated HK cleavage in undiluted citrated human plasma was induced by contact system activation with DXS (6.25 μg/ml) at 4° C. in selected samples from the SAD phase."}, "[4]": {"test": "Phase 1 multiple dose study, safety, tolerability and ECG", "type": "in vivo, human", "conditions": "total 1800 mg, healthy adults", "experimental": "This was a phase 1, double-blind, placebo-controlled, multiple-dose, multiple-cohort study to evaluate safety and tolerability of the compound as well as of the ECG effects of the compound formulated as 100 mg Film Coated Tablets in healthy adult male and female subjects.\nFour (4) cohorts were evaluated. Cohorts 1, 2 and 3 included 8 subjects each. Cohort 4 included 18 subjects. Every attempt was made to include an equal number of male and female subjects in each cohort.\nDuring the study, oral doses of 600 mg of the compound as Film Coated Tablets (six 100 mg tablets) or 6 matching placebo tablets were administered once every 8 hours (Cohort 1) every 4 hours (Cohort 2), or every 2 hours (Cohort 3 and 4) to healthy adult male and female subjects up to a total dose of 1800 mg. In Cohorts 1, 2 and 3, 6 subjects received the compound as 100 mg Film Coated Tablets and 2 subjects received the placebo for a total of 8 subjects per cohort. In Cohort 4, 12 subjects received the compound as 100 mg Film Coated Tablets and 6 subjects received the placebo for a total of 18 subjects.\nA Holter monitor was attached to each subject in order to continuously record ECGs. The monitor was attached 1 hour before the first dose and remained attached until after the final blood sample collection. The electrodes for the Holter monitor were checked by a member of the clinic staff at appropriate intervals to ensure they were attached."}, "[5]": {"test": "Phase 1 single ascending dose study, plasma pharmacokinetics", "type": "in vivo, human", "conditions": "oral capsule 5 mg to 600 mg, fasted healthy males", "experimental": "This study was a randomized, double-blind, placebo-controlled single ascending dose (SAD) and crossover studies for food effect and capsule/tablet formulations.\nSamples for pharmacokinetic (PK) and PD assessment were taken at repeated intervals over 48 hours.\nPlasma samples used for PK assessment were analysed using a validated liquid chromatography tandem mass spectrometry (LC MS/MS) method."}, "[6]": {"test": "Phase 2 study, safety (drug-related TEAEs)", "type": "in vivo, human", "excerpt": "Safety Variables: • AEs, including serious adverse events (SAEs). • Laboratory test results (clinical chemistry, hematology, coagulation, and urinalysis). • Vital signs (SBP, DBP, PR, RR, body temperature). • Physical examination findings. • ECG results. • Pregnancy test (female subjects of child-bearing potential).\nAEs were coded using the Medical Dictionary for Regulatory Activities (MedDRA) dictionary (v21.0 or higher) and classified by preferred term and system organ class (SOC). Listings of treatment-emergent adverse events (TEAEs), serious TEAEs, and TEAEs causing premature discontinuation will be provided by sequence group, and further classified by TEAE severity and relationship to study drug."}, "[7]": {"test_system": "Factor XII (FXII)", "test": "Phase 1 study, ex vivo DXS-stimulated cleavage of Factor XII (Wes)", "type": "in vivo, human", "conditions": "600 mg capsules, up to 12 hrs post-dose", "excerpt": "(§1) DXS-stimulated cleavage of plasma prekallikrein and Factor XII (FXII) were quantified by capillary-based immunoassay on the Wes System (ProteinSimple) analogously."}, "[8]": {"test_system": "plasma prekallikrein", "test": "Phase 1 study, ex vivo DXS-stimulated cleavage of plasma prekallikrein (Wes)", "type": "in vivo, human", "conditions": "600 mg capsules, up to 12 hrs post-dose", "excerpt": "as §1"}, "[9]": {"conditions": "3 x 600 mg every 8, 4 or 2 hours"}}, "data": [{"smiles": "COCc1nn(Cc2ccc(Cn3ccccc3=O)cc2)cc1C(=O)NCc1nccc(OC)c1F", "note": "[compound of Formula A, N-[(3-fluoro-4-methoxypyridin-2-yl)methyl]-3-(methoxymethyl)-1-({4-[(2-oxopyridin-1-yl)methyl]phenyl}methyl)pyrazole-4-carboxamide]", "values": [{"measurement": "protection against HK cleavage", "setting": "[1]", "value": "dose dependent protection against HK cleavage"}, {"measurement": "lag time until appearance of catalytic activity during contact system activation", "setting": "[2]", "value": "increases the time until appearance of catalytic activity"}, {"measurement": "food effect on pharmacodynamic profile", "setting": "[2]; fed vs fasted", "value": "no significant food-effect"}, {"measurement": "effect on HK cleavage", "setting": "[3]", "value": "reduces HK cleavage"}, {"measurement": "serious adverse events", "setting": "[4]; [9]", "value": "No serious adverse events"}, {"measurement": "severity of reported adverse events", "setting": "[4]; [9]", "value": "mild"}, {"measurement": "effects on ECG parameters", "setting": "[4]; 3 x 600 mg", "value": "No clinically relevant effects on the studied ECG parameters"}, {"measurement": "plasma exposure", "setting": "[5]", "value": "rapid and dose-dependent plasma exposure"}, {"measurement": "on-treatment drug-related TEAE, number of events", "setting": "[6]; Part 1, open-label phase", "value": 8}, {"measurement": "patients with on-treatment drug-related TEAE", "setting": "[6]; Part 1, open-label phase", "value": 5, "unit": "patients"}, {"measurement": "on-treatment drug-related TEAE, number of events", "setting": "[6]; Part 2, crossover phase", "value": 3}, {"measurement": "patients with on-treatment drug-related TEAE", "setting": "[6]; Part 2, crossover phase", "value": 5.2, "unit": "%"}, {"measurement": "effect on generation of FXIIa", "setting": "[7]", "value": "reduces the generation of FXIIa"}, {"measurement": "effect on PPK cleavage", "setting": "[8]", "value": "reduces PPK cleavage"}]}]}
